In patent US20230348487A1, “2-AMINOPYRIMIDINE COMPOUND AND PHARMACEUTICAL COMPOSITION THEREOF AND APPLICATION THEREOF” (GUANGZHOU SALUSTIER BIOSCIENCES CO., LTD., priority 2021, published 2023):

Test system: phosphorylation of JAK3 and STAT5 in U937 cells
Experiment: Wash out experiment in U937 cells
Type: cell-based, human
Conditions: 200 nM 10 hours then removed
Protocol: Cell line: human acute myeloid leukemia cell line U937
After 200 nM test compound LS6-45 was co-incubated with U937 cells for 10 hours, the supernatant was discarded by centrifugation. The cells were collected and washed with PBS to remove residual compounds. After adding fresh culture medium, the cells continued to be cultured in a 37° C. incubator. Cells were collected at 0, 0.5, 1, 2, 4, 8, 12, and 16 hours, and protein was extracted for Western blot analysis.

For `C=CC(=O)Nc1cc(Nc2ncc(Cl)c(O[C@@H]3CO[C@H]4[C@@H]3OC[C@H]4OC)n2)ccc1N(C)CCN(C)C` [LS 6-45], the “phosphorylation levels of JAK3 and STAT5 after wash out” value (between 8-12 hours) was “slowly recovered” and the “phosphorylation levels of JAK3 and STAT5 after wash out” value (within 8 hours) was “continuously inhibited”.
